Drawing on ChEMBL document CHEMBL1201862, “PubChem BioAssay data set” (2004), this text covers IC50, EC50 and AC50 for 5 molecules.

Experiment [1] has as its target Ras and Rab interactor 1/Tyrosine-protein kinase ABL1 (Homo sapiens, UniProt P00519+Q13671). It counts as functional.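 Note: biochemical TR-FRET dose-response test measuring inhibition of binding between Rin1 and Abl proteins.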
Experiment [2] concerns the target T1, Heat shock factor protein 1 (Mus musculus, UniProt P38532).
T1 sequence (P38532 whole entry): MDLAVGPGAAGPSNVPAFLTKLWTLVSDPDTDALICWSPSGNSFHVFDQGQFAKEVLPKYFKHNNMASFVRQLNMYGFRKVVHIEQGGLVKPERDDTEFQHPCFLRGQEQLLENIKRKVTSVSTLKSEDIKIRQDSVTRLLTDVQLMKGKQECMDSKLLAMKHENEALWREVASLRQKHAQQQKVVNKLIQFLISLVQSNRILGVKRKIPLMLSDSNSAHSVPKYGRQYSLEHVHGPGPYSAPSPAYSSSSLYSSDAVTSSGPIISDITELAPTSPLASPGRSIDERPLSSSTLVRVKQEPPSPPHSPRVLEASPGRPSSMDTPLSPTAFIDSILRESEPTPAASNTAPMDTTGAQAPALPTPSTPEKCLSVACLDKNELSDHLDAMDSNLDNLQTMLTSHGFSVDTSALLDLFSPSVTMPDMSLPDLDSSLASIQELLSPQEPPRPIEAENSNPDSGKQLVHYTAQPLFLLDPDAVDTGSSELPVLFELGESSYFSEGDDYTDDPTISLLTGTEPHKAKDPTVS
Put plainly: inhibition of MG132-induced HSE-luciferase signal, confirmation, cell-based, NIH3T3, luminescence, dose retest (AID 2382).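 Note: NIH3T3 fibroblasts with HSF1-driven luciferase reporter stressed by proteasome inhibitor MG132; luminescence from HSF1-driven luciferase expression after 8 hours of MG132 stress.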 It counts as functional.

In experiment [3] the target is T2, Type-1 angiotensin II receptor (Homo sapiens, UniProt P30556).
T2 sequence (P30556 whole entry): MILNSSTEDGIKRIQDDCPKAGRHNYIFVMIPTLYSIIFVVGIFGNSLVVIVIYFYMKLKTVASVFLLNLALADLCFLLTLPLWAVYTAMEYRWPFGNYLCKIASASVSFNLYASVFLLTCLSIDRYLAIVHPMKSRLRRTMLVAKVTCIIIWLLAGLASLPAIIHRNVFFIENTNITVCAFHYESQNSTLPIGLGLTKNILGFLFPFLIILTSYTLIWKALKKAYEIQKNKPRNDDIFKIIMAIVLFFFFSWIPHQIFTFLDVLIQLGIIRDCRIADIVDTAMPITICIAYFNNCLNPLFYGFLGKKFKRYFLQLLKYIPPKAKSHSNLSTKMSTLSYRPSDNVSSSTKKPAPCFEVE
Put plainly: AT1 receptor antagonists, dose response, selectivity assay for APJ receptor antagonist project, cell-based, uHTS hits (AID 463214).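 Note: antagonist potency against angiotensin II stimulated AT1 response.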 It counts as functional.

The target in another experiment is Beta-galactosidase (Escherichia coli, UniProt Q8VNN2). Put plainly: PubChem AID 485352. Type of experiment: functional.
Experiment [4] concerns HEK293. Put plainly: optical interference in Abeta FP readout, dose response, artefact control for IDE activator project, biochemical, fluorescence polarization (AID 588442). It counts as functional, cell-based. The note with it: Homo sapiens.
Experiment [5] has as its system HEK293. Put plainly: HEK cell cytotoxicity by LDH release, dose response, cytotoxicity control for IDE activator project, fluorescence, HEK cells (AID 588440).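 Note: cytotoxicity by LDH release measuring loss of membrane integrity.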 The note with it: Homo sapiens. It counts as functional, cell-based.
The target of the next experiment is Cytochrome P450 3A4 (Homo sapiens, UniProt P08684). The note with it: Potency.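 Note: confirmatory qHTS run detecting inhibitors and substrates of CYP3A4.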
Experiment [6] has as its target T3, Endoribonuclease toxin MazF (Escherichia coli K-12, UniProt P0AE70).
T3 sequence (P0AE70 whole entry): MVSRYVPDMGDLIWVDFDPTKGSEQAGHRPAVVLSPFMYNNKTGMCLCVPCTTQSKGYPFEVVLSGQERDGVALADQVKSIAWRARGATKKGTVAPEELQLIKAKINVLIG
Put plainly: MazF toxin RNase activators, dose response, biochemical, fluorescence, single-stranded RNA substrate, uHTS hits (AID 588481). It counts as functional.

Experiment [7] has as its target T3, Endoribonuclease toxin MazF. Put plainly: fluorescent RNA oligo signal without MazF, dose response, counter-screen for MazEF activator project, biochemical, fluorescence, single-stranded RNase substrate (AID 588502). Type of experiment: functional.
Experiment [8] concerns the target T4, Insulin-degrading enzyme (Homo sapiens, UniProt P14735).
T4 sequence (P14735 whole entry): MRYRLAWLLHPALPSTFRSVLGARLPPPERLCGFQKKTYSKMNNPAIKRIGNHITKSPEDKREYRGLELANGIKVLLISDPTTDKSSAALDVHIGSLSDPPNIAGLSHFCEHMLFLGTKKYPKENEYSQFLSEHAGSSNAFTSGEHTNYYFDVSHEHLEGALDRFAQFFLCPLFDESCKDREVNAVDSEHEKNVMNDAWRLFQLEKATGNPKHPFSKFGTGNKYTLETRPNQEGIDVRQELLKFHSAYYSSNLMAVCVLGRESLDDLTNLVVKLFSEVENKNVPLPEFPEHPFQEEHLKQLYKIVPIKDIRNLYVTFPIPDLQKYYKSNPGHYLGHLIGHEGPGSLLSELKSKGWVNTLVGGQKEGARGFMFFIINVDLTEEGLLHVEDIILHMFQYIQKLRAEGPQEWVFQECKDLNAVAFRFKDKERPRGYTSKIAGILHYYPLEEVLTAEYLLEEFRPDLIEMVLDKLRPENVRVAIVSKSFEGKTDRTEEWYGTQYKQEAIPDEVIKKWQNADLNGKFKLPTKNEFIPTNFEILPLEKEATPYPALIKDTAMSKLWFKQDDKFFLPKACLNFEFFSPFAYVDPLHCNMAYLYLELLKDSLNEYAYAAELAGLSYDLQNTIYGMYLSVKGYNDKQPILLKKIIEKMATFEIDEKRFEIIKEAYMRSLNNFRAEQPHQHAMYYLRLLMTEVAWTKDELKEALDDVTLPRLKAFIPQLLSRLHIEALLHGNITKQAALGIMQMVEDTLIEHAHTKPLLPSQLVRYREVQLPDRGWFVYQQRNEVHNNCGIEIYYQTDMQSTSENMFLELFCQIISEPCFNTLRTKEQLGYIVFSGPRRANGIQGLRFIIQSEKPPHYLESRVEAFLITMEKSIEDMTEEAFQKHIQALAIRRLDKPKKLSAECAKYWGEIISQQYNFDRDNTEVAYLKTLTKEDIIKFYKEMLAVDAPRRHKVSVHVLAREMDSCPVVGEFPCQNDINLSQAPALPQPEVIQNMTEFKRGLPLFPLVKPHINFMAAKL
Put plainly: activators of recombinant IDE enzyme, dose response, counter-screen for IDE activator project, biochemical, fluorescence polarization (AID 588681).

In experiment [9] the target is T4, Insulin-degrading enzyme. Put plainly: activators of endogenous IDE in HEK cells, dose response, cell-based, fluorescence polarization (AID 588439). It counts as functional.
Experiment [10] is described as follows: nonselective inhibitors of cellular cAMP signaling, dose response, counter-screen for MC4R biased antagonist project, cell-based, TR-FRET cAMP detection (AID 602305).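 Note: U2OS cells stimulated with forskolin near its EC80 as the cAMP inducer; potency is for inhibition of forskolin-stimulated cAMP signaling.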 Type of experiment: functional.
Another experiment addresses Melanocortin receptor 4 (Homo sapiens, UniProt P32245). Put plainly: MC4R antagonist potency on cAMP, dose response, cell-based, TR-FRET, biased antagonists (AID 602298).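 Note: antagonist potency against agonist-stimulated cAMP production.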 Type of experiment: functional.
The target of experiment [11] is Tyrosine-protein phosphatase non-receptor type 11 (Homo sapiens, UniProt Q06124). Put plainly: SHP2 phosphatase inhibition, dose response, selectivity assay for STEP inhibitor project, biochemical (AID 602367). The note with it: read-out: IC50_Mean. It counts as functional.
The target of experiment [12] is Tyrosine-protein phosphatase non-receptor type 5 (Homo sapiens, UniProt P54829). Put plainly: STEP phosphatase inhibitors, confirmation, biochemical, fluorescence intensity, uHTS hits (AID 602372). It counts as functional. The note with it: read-out: IC50_Mean.
The target in experiment [13] is Dual specificity protein phosphatase 3 (Homo sapiens, UniProt P51452). Put plainly: VHR phosphatase inhibition, dose response, selectivity assay for STEP inhibitor project, biochemical (AID 602374). It counts as functional. The note with it: read-out: IC50_Mean.

Activity calls are given as the source filed them. Some results are limits rather than exact numbers.

Chain of Melanocortin receptor 4 (P32245 whole entry): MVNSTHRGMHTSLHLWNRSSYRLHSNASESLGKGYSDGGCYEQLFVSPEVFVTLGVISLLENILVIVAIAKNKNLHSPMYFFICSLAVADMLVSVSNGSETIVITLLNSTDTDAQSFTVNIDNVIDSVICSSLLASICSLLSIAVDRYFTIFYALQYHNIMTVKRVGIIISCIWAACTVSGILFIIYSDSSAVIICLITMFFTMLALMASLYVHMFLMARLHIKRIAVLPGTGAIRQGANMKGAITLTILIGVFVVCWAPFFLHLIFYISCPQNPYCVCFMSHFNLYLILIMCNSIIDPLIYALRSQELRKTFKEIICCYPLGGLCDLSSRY
Chain of Cytochrome P450 3A4 (P08684 whole entry): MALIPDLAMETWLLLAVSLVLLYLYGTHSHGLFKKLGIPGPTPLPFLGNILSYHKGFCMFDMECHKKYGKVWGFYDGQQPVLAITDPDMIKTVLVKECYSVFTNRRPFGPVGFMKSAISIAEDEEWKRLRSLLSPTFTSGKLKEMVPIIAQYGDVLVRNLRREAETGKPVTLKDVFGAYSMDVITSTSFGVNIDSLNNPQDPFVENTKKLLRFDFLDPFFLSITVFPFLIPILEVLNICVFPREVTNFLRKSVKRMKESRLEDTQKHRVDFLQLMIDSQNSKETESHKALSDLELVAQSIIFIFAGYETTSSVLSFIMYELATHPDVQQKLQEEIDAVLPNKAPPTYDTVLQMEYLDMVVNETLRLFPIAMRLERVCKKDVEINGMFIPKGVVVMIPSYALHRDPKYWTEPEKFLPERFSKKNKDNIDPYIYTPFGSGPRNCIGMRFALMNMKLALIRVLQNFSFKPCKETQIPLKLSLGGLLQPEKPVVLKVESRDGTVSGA
Chain of Tyrosine-protein phosphatase non-receptor type 5 (P54829 whole entry): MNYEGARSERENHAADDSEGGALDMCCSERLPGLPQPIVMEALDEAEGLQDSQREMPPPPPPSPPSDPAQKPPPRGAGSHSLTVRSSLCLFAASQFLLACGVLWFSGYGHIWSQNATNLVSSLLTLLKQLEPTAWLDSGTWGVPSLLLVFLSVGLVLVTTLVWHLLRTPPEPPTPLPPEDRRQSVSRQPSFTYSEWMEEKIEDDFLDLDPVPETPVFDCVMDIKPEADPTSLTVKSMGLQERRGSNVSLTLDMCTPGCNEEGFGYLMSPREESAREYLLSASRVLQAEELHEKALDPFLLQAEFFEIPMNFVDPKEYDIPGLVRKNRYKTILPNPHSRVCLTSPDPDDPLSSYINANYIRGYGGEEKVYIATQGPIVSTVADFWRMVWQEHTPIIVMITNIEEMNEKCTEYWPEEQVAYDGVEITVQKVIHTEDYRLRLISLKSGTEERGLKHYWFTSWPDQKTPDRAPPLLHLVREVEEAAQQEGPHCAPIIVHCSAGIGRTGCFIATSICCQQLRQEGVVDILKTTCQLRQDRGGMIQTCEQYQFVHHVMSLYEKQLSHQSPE
Chain of Ras and Rab interactor 1/Tyrosine-protein kinase ABL1 (P00519 whole entry): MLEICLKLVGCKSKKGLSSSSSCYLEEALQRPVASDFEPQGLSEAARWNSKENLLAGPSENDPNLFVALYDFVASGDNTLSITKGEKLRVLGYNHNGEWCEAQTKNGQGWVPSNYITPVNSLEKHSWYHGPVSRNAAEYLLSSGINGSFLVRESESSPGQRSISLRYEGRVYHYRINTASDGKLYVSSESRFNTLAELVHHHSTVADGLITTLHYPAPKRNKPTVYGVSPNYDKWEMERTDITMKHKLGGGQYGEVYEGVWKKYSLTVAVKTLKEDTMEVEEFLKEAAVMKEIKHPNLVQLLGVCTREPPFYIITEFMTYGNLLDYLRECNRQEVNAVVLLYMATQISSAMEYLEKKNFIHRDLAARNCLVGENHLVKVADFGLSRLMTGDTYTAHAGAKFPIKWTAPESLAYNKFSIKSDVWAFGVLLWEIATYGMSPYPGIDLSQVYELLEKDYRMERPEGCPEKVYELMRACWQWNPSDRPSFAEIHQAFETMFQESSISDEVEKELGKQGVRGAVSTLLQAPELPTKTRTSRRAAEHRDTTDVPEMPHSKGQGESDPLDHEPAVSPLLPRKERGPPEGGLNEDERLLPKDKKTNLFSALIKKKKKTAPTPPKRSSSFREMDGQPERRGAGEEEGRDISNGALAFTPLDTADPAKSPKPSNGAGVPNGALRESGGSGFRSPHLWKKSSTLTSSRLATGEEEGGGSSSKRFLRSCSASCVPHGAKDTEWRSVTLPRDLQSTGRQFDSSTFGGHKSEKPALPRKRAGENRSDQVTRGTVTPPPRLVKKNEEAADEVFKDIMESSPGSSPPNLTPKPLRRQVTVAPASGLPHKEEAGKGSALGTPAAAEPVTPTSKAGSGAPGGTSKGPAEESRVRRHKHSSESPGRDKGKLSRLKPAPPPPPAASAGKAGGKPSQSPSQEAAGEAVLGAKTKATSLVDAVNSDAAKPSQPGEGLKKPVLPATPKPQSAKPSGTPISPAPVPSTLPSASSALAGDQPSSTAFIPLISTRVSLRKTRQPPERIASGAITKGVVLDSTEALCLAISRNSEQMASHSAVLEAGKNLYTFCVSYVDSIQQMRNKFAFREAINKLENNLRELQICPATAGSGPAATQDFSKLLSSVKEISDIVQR
Chain of Ras and Rab interactor 1/Tyrosine-protein kinase ABL1 (Q13671 whole entry): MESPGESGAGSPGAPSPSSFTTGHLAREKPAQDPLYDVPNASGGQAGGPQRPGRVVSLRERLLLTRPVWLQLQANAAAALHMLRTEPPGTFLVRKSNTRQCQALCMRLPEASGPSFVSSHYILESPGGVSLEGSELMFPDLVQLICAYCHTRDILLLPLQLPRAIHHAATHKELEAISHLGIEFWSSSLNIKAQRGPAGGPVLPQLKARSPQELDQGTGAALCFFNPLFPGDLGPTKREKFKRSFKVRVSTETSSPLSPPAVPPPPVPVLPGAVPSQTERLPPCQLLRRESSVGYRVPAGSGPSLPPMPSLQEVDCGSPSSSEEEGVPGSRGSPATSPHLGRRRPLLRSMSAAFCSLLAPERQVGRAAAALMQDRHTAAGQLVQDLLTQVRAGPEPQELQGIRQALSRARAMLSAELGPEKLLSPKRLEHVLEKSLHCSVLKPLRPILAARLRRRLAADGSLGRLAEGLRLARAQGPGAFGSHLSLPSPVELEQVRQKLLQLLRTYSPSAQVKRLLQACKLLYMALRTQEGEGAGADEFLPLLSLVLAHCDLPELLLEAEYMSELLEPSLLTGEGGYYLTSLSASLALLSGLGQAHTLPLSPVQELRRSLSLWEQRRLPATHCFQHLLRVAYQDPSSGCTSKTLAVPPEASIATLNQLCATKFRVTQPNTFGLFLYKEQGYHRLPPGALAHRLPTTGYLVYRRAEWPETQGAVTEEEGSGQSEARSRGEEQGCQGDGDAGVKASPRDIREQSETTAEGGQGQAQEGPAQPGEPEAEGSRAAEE
Chain of Tyrosine-protein phosphatase non-receptor type 11 (Q06124 whole entry): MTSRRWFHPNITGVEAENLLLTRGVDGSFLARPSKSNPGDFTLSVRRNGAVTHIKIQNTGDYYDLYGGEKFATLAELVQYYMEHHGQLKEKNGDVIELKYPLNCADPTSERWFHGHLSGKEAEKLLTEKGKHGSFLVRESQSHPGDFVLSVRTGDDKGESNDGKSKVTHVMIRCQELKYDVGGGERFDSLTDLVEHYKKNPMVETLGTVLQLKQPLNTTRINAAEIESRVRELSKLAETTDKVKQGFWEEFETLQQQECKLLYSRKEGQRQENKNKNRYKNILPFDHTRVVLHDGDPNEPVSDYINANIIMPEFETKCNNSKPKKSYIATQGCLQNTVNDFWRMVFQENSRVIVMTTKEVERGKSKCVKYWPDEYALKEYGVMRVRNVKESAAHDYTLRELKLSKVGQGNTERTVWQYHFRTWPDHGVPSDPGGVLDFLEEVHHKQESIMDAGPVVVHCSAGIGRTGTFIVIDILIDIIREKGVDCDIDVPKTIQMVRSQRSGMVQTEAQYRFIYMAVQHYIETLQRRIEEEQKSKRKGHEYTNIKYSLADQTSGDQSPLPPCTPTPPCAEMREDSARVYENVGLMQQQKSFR
Chain of Beta-galactosidase (Q8VNN2 whole entry): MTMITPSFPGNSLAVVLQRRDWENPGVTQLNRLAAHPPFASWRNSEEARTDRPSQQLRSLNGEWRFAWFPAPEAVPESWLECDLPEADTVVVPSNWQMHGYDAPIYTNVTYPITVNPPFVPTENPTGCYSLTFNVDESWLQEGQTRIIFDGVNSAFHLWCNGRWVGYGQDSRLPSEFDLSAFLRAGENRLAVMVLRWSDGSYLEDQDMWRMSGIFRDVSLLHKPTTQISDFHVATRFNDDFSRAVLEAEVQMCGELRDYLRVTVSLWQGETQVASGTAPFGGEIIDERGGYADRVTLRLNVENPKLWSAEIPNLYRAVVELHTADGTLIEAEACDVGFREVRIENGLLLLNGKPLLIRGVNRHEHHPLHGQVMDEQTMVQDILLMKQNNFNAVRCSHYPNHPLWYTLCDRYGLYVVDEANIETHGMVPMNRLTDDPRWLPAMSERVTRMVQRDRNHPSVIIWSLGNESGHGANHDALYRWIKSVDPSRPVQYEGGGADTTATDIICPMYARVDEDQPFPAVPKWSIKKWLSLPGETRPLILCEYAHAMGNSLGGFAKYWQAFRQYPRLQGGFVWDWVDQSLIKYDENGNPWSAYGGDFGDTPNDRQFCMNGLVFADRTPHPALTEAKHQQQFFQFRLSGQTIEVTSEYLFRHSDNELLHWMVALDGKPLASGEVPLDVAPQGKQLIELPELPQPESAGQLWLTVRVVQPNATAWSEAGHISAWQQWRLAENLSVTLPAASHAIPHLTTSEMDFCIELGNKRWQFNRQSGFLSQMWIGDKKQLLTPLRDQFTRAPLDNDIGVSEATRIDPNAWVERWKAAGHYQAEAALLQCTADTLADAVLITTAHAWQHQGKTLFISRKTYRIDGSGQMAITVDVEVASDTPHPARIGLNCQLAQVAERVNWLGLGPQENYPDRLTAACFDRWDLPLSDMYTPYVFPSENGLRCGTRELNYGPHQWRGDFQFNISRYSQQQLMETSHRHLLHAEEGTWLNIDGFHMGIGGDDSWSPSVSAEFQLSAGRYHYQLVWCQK

As for `CCCn1c2ccccc2c2nnc(SCc3[nH]c(O)nc3C(=O)CCCCC(=O)OCC)nc21`, the IC50 in [1] was 3.23 µM (active). In experiment [2], the concentration giving a half-maximal response (EC50) was > 195 µM (not active).

Regarding `Cc1ccc(OCCN2C(=O)c3ccccc3C2=O)c([N+](=O)[O-])c1`, the IC50 in experiment [3] was 9.04 µM (active). Also, on Beta-galactosidase, the EC50 was > 40 µM (inactive).

In the case of `Oc1ccc2c(c1)OCC1(O)Cc3cc(O)c(O)cc3C21` (stereo unspecified), the EC50 was 53.6 µM (inactive) in the experiment on HEK293 [4]; > 99 µM (inactive) in experiment [6]; 3.96 µM (active) in [7]; > 54.7 µM (inactive) on Insulin-degrading enzyme [8]; > 54.7 µM (inactive) on Insulin-degrading enzyme [9]. Moreover, in the experiment with HEK293 [5], the IC50 was 85.1 µM (inactive). Moreover, the half-maximal activity concentration (AC50) at Cytochrome P450 3A4 was 31.6 µM (inconclusive).

Consider `Cc1sc2nc(CN3CCOCC3)nc(Cl)c2c1C`, for which the IC50 (in experiment [10]; on Melanocortin receptor 4) was > 64.5 µM (inactive) throughout.

In the case of `Cc1ccc(-c2nc3ncccc3o2)cc1NC(=O)CC(C)C`, the IC50 in [11], in experiment [12] and in [13] was > 80 µM (inactive) in each case.
